These compounds were tested against SARS-CoV-2 3CLpro (Severe acute respiratory syndrome coronavirus 2, UniProt P0DTD1) (assay: biochemical). Details: IC50 (μM), SARS-CoV-2 3CLPro assay.
For CC(C)C[C@H](NC(=O)c1cc2ccccc2[nH]1)C(=O)NN(CC1CCNC1=O)C(=O)CCl (mixture of isomers) [Example 51, N-[(1S)-1-[[(2-Chloroacetyl)-[(2-oxo-pyrrolidin-3-yl)methyl]amino]carbamoyl]-3-methyl-butyl]-1H-indole-2-carboxamide], the IC50 was 0.004 µM. Work on COc1cccc2[nH]c(C(=O)NC(CC(C)C)C(=O)NN(CCC(N)=O)C(=O)[C@@H](F)Cl)cc12 (mixture of isomers) [Example 54-A, 4-Methoxy-N-[rac-(1S)-1-[[(3-amino-3-oxo-propyl)-[(2S)-2-chloro-2-fluoro-acetyl]amino]carbamoyl]-3-methyl-butyl]-1H-indole-2-carboxamide] yielded an IC50 of 0.004 µM. In the case of CC(C)C[C@H](NC(=O)c1cc2cc(F)ccc2[nH]1)C(=O)NN(CCC(N)=O)C(=O)[C@@H](F)Cl (racemic) [Example 57-A, 5-fluoro-N-[rac-(1S)-1-[[(3-amino-3-oxo-propyl)-[rac-(2S)-2-chloro-2-fluoro-acetyl]amino]carbamoyl]-3-methyl-butyl]-1H-indole-2-carboxamide], the IC50 is reported as 0.067 µM. CC(C)C[C@H](NC(=O)c1cc2cc(F)ccc2[nH]1)C(=O)NN(CCC(N)=O)C(=O)[C@H](F)Cl (racemic) [Example 57-B, 5-fluoro-N-[rac-(1S)-1-[[(3-amino-3-oxo-propyl)-[rac-(2R)-2-chloro-2-fluoro-acetyl]amino]carbamoyl]-3-methyl-butyl]-1H-indole-2-carboxamide] gave an IC50 of 0.01 µM. CC(C)C[C@H](NC(=O)c1cc2cc(Cl)ccc2[nH]1)C(=O)NN(CCC(N)=O)C(=O)[C@@H](F)Cl (racemic) [Example 58-A, 5-Chloro-N-[rac-(1S)-1-[[(3-amino-3-oxo-propyl)-[rac-(2S)-2-chloro-2-fluoro-acetyl]amino]carbamoyl]-3-methyl-butyl]-1H-indole-2-carboxamide] showed an IC50 of 0.032 µM. CC(C)C[C@H](NC(=O)c1cc2cc(Cl)ccc2[nH]1)C(=O)NN(CCC(N)=O)C(=O)[C@H](F)Cl (racemic) [Example 58-B, 5-chloro-N-[rac-(1S)-1-[[(3-amino-3-oxo-propyl)-[rac-(2R)-2-chloro-2-fluoro-acetyl]amino]carbamoyl]-3-methyl-butyl]-1H-indole-2-carboxamide] gave an IC50 of 0.007 µM. CC(C)C[C@H](NC(=O)c1nc2cc(Cl)ccc2[nH]1)C(=O)NN(CCC(N)=O)C(=O)[C@@H](F)Cl (racemic) [Example 60-A, 5-chloro-N-[rac-(1S)-1-[[(3-amino-3-axo-propyl)-[rac-(2S)-2-chloro-2-fluoro-acetyl]amino]carbamoyl]-3-methyl-butyl]-1H-benzimidazole-2-carboxamide] showed an IC50 of 0.008 µM. Work on CC(C)C[C@H](NC(=O)c1nc2cc(Cl)ccc2[nH]1)C(=O)NN(CCC(N)=O)C(=O)[C@H](F)Cl (racemic) [Example 60-B, 5-chloro-N-[rac-(1S)-1-[[(3-amino-3-oxo-propyl)-[rac-(2R)-2-chloro-2-fluoro-acetyl]amino]carbamoyl]-3-methyl-butyl]-1H-benzimidazole-2-carboxamide] yielded an IC50 of 0.052 µM. For NC(=O)CCN(NC(=O)[C@H](CC1CC1)NC(=O)c1cc2ccccc2[nH]1)C(=O)C(F)Cl (mixture of isomers) [Example 62, N-[rac-(1S)-2-[2-(3-amino-3-oxo-propyl)-2-(2-chloro-2-fluoro-acetyl)hydrazino]-1-(cyclopropylmethyl)-2-axo-ethyl]-1H-indole-2-carboxamide], the IC50 was 0.017 µM. Work on NC(=O)CCN(NC(=O)[C@H](CC1CCC1)NC(=O)c1nc2ccccc2[nH]1)C(=O)C(F)Cl (mixture of isomers) [Example 66, N-[rac-(1S)-2-[2-(3-amino-3-oxo-propyl)-2-(2-chloro-2-fluoro-acetyl)hydrazino]-1-(cyclobutylmethyl)-2-axo-ethyl]-1H-benzimidazole-2-carboxamide] yielded an IC50 of 0.034 µM. NC(=O)CCN(NC(=O)[C@H](CC12CC(C1)C2)NC(=O)c1nc2ccccc2[nH]1)C(=O)C(F)Cl (mixture of isomers) [Example 67, N-[rac-(1S)-2-[2-(3-amino-3-oxo-propyl)-2-(2-chloro-2-fluoro-acetyl)hydrazino]-1-(1-bicyclo[1.1.1]pentanylmethyl)-2-axo-ethyl]-1H-benzimidazole-2-carboxamide] gave an IC50 of 0.023 µM. Cc1cc(C(=O)N[C@@H](CC2CCCCC2)C(=O)NN(CCC(N)=O)C(=O)C(F)Cl)no1 (mixture of isomers) [Example 74, 5-Methyl-N-[rac-(1S)-2-[2-(3-amino-3-oxo-propyl)-2-(2-chloro-2-fluoro-acetyl)hydrazino]-1-(cyclohexylmethyl)-2-axo-ethyl]isoxazole-3-carboxamide] showed an IC50 of 0.028 µM. Cc1cc(C(=O)N[C@@H](CC2CC2)C(=O)NN(CCC(N)=O)C(=O)C(F)Cl)no1 (mixture of isomers) [Example 75, 5-Methyl-N-[rac-(1S)-2-[2-(3-amino-3-oxo-propyl)-2-(2-chloro-2-fluoro-acetyl)hydrazino]-1-(cyclopropylmethyl)-2-axo-ethyl]isoxazole-3-carboxamide] showed an IC50 of 0.32 µM. In the case of NC(=O)CCN(NC(=O)[C@H](CC1CCC1)NC(=O)c1cnccn1)C(=O)C(F)Cl (mixture of isomers) [Example 79, N-[rac-(1S)-2-[2-(3-amino-3-oxo-propyl)-2-(2-chloro-2-fluoro-acetyl)hydrazino]-1-(cyclobutylmethyl)-2-axo-ethyl]pyrazine-2-carboxamide], the IC50 is reported as 0.15 µM. For NC(=O)CCN(NC(=O)[C@H](CC1CCCCC1)NC(=O)c1cn2ccccc2n1)C(=O)C(F)Cl (mixture of isomers) [Example 82, N-[rac-(1S)-2-[2-(3-amino-3-oxo-propyl)-2-(2-chloro-2-fluoro-acetyl)hydrazino]-1-(cyclohexylmethyl)-2-axo-ethyl]imidazo[1,2-a]pyridine-2-carboxamide], the IC50 was 0.043 µM. Work on COc1cc2cc(C(=O)N[C@@H](CC(C)C)C(=O)NN(CCC(N)=O)C(=O)C(F)Cl)[nH]c2cn1 (mixture of isomers) [Example 89, 5-methoxy-N-[rac-(1S)-1-[[(3-amino-3-axo-propyl)-(2-chloro-2-fluoro-acetyl)amino]carbamoyl]-3-methyl-butyl]-1H-pyrrolo[2,3-c]pyridine-2-carboxamide] yielded an IC50 of 0.019 µM. With CC(C)CC(NC(=O)c1cn2ccccc2n1)C(=O)NN(CCC(N)=O)C(=O)C(F)Cl (racemic) [Example 95, N-[rac-(1S)-1-[[(3-amino-3-oxo-propyl)-(2-chloro-2-fluoro-acetyl)amino]carbamoyl]-3-methyl-butyl]imidazo[1,2-a]pyridine-2-carboxamide] the IC50 was 0.65 µM. In the case of CC(C)C[C@H](NC(=O)c1ncc[nH]1)C(=O)NN(CCC(N)=O)C(=O)C(F)Cl (mixture of isomers) [Example 96, N-[rac-(1S)-1-[[(3-amino-3-oxo-propyl)-(2-chloro-2-fluoro-acetyl)amino]carbamoyl]-3-methyl-butyl]-1H-imidazole-2-carboxamide], the IC50 is reported as 0.66 µM. For Cc1cc(C(=O)NC(CC(C)C)C(=O)NN(CCC(N)=O)C(=O)C(F)Cl)no1 (racemic) [Example 97, 5-Methyl-N-[rac-(1S)-1-[[(3-amino-3-oxo-propyl)-(2-chloro-2-fluoro-acetyl)amino]carbamoyl]-3-methyl-butyl]isoxazole-3-carboxamide], the IC50 was 0.91 µM.

Same assay, conditions: read-out: IC50 (μM), SARS-CoV-2 3CLPro assay
CC(C)C[C@H](NC(=O)c1cc2ccccn2n1)C(=O)NN(CCC(N)=O)C(=O)C(F)Cl (mixture of isomers) [Example 90, N,N-[rac-(1S)-1-[[(3-amino-3-oxo-propyl)-(2-chloro-2-fluoro-acetyl)amino]carbamoyl]-3-methyl-butyl]pyrazolo[1,5-a]pyridine-2-carboxamide] was tested, and the IC50 was 0.073 µM.

From US12060333B2 (Hoffmann-La Roche Inc., priority 2021, dated 2024)
